Source: ChEMBL document CHEMBL4184146, “Interrogating the Roles of Post-Translational Modifications of Non-Histone Proteins” (J Med Chem, 2018)
Values belong to the compound of their own block, whether it stands above or below them.

Legend:
[1] = target: Protein farnesyltransferase (Homo sapiens, UniProt P49354+P49356); test: Inhibition of FTase isolated from human Burkitt's lymphoma cells assessed as decrease in transfer of [3H]farnesyl from [3H]farnesyl PPi to H-Ras-CVLS
SUMO-activating enzyme = SUMO-activating enzyme (Homo sapiens, UniProt Q9UBT2); test: Inhibition of SAE (unknown origin) assessed as decrease in formation of E2-UBL thioester reaction product; assay type: protein-complex assay
Chain of SUMO-activating enzyme (Q9UBE0 whole entry): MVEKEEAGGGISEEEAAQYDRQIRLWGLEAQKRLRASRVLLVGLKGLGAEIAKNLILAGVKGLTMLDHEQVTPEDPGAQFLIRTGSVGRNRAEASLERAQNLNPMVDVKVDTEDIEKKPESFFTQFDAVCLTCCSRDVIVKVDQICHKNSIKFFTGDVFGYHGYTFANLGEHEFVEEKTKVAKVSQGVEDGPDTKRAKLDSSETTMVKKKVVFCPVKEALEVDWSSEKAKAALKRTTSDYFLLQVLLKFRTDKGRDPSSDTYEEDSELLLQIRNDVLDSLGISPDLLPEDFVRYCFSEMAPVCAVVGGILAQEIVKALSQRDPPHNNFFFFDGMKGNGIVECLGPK
Chain of SUMO-activating enzyme (Q9UBT2 whole entry): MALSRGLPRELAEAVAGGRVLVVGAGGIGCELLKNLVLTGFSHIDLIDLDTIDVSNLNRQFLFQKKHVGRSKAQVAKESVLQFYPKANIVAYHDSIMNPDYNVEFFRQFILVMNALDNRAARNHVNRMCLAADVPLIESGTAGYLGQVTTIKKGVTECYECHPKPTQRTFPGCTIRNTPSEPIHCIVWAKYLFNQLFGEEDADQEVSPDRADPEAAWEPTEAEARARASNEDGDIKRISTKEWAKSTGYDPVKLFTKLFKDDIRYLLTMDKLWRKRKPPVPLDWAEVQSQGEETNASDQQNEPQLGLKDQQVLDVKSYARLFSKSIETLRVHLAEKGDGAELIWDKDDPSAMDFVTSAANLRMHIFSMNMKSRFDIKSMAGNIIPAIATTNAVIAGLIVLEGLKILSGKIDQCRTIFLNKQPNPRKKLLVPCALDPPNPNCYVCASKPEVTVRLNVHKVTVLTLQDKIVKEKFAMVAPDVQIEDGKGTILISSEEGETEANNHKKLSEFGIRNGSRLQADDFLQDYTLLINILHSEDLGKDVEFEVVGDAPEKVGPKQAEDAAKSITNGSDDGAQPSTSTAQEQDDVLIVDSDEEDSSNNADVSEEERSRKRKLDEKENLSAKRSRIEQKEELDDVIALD

[2] = Inhibition of UAE (unknown origin) assessed as decrease in formation of E2-UBL thioester reaction product; parameters: species or system Homo sapiens
[3] = target: T1, Ubiquitin-like modifier-activating enzyme ATG7 (Homo sapiens, UniProt O95352); test: Inhibition of ATG7 (unknown origin) assessed as decrease in formation of E2-UBL thioester reaction product
T1 sequence (O95352 whole entry): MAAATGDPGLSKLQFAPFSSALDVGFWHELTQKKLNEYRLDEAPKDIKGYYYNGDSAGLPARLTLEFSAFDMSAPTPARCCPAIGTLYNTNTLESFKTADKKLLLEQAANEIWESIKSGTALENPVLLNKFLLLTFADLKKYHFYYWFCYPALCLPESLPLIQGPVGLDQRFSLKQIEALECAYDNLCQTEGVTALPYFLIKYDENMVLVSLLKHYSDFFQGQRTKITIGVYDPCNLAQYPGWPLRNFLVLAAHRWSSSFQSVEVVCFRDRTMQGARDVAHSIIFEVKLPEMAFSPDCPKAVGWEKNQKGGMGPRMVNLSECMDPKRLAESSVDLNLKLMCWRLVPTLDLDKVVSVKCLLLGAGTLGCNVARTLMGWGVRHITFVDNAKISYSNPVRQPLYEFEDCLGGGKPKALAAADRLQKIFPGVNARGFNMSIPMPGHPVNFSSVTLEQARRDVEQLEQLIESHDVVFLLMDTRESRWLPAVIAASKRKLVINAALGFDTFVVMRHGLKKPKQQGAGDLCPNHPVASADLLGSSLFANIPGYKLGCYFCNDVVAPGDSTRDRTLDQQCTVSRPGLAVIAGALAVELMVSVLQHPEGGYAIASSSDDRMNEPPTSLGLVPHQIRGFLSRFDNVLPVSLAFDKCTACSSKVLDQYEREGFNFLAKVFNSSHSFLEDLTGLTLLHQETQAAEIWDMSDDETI

[4] = target: T2, Ubiquitin-like modifier-activating enzyme 6 (Homo sapiens, UniProt A0AVT1); test: Inhibition of UBA6 (unknown origin) assessed as decrease in formation of E2-UBL thioester reaction product
T2 sequence (A0AVT1 whole entry): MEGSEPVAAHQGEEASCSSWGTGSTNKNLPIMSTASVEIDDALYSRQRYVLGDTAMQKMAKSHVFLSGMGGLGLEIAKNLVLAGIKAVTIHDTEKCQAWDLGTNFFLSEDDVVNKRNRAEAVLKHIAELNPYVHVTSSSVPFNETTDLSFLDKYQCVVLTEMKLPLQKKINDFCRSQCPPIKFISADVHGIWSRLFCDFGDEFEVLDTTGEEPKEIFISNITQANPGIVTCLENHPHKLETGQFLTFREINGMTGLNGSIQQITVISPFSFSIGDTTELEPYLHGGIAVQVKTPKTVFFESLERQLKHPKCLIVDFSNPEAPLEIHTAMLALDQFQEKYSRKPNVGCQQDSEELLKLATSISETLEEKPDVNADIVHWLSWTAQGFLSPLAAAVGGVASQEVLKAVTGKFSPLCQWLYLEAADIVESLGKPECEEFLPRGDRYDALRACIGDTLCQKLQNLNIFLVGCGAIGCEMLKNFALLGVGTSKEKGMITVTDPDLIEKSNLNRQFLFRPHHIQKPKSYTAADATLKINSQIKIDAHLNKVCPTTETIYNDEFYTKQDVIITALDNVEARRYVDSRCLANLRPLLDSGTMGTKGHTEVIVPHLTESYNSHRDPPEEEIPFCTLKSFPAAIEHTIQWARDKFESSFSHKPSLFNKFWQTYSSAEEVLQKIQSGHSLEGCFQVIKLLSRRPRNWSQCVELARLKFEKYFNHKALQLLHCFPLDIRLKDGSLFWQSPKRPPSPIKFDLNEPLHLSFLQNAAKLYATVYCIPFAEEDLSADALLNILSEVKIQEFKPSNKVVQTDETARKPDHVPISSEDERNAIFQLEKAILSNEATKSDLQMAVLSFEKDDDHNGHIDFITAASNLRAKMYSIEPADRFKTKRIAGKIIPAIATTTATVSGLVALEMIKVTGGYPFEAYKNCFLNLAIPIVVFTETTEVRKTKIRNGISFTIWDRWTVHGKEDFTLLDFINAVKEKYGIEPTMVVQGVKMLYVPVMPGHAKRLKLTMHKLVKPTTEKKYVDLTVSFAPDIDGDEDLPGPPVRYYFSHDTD

Protein O-GlcNAcase = target: T3, Protein O-GlcNAcase (Rattus norvegicus, UniProt Q8VIJ5); test: Inhibition of O-GlcNAcase in rat PC12 cells assessed as induction of OGlcNAcylation after 24 hrs by Western blot method; assay type: cell-based
T3 sequence (Q8VIJ5 whole entry): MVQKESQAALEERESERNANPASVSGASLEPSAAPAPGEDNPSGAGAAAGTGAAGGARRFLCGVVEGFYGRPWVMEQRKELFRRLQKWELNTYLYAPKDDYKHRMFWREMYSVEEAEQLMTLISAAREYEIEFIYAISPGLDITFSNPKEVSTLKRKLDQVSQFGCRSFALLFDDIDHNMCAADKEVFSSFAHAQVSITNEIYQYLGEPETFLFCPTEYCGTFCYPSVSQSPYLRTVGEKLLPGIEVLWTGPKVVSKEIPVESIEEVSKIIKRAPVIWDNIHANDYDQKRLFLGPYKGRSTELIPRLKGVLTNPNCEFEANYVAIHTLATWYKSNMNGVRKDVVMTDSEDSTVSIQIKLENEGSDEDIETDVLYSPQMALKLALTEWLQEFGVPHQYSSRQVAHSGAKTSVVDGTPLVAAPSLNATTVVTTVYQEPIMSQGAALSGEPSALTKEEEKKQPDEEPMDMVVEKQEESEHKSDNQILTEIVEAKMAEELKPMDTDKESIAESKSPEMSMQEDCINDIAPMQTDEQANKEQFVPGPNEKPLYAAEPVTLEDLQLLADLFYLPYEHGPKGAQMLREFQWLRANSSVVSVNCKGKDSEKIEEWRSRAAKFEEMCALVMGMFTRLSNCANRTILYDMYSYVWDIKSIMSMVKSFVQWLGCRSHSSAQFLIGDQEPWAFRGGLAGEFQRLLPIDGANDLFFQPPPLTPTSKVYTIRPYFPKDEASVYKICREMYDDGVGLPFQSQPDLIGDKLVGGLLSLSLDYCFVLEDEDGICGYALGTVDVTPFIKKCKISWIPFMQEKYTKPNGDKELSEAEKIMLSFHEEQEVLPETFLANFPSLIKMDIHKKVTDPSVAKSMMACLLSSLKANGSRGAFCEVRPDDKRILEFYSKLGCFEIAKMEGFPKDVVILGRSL

[5] = target: Geranylgeranyl transferase type I (Homo sapiens, UniProt P49354+P53609); test: Inhibition of GGTase1 isolated from Kirsten virus-transformed human osteosarcoma cells using biotin-YRASNRSCAIL peptide as substrate after 120 mins in presence of [ 1-[ 3 H](n)]geranylgeranylpyrophosphate by scintillation proximity assay
Sharpin/RBCK1/RNF31 = target: T4, Sharpin/RBCK1/RNF31 (Homo sapiens, UniProt Q96EP0+Q9BYM8+Q9H0F6); test: Inhibition of petit-LUBAC (unknown origin)-mediated ubiquitylation expressed in Escherichia coli BL21 after 2 hrs in presence of E1, UbcH5c, E3 and ubiquitin
T4 sequence (Q9H0F6 whole entry): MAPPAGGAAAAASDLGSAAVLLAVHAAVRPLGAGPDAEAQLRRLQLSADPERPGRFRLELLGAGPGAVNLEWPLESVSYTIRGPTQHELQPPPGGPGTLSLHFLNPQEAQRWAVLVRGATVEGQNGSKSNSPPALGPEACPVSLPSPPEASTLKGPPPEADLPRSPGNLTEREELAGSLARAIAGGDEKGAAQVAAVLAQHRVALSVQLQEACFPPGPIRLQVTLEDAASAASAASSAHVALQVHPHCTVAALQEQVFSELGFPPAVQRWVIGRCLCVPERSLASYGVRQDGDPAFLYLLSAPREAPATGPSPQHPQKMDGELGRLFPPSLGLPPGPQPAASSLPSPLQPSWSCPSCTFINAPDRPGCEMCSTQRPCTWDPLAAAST
T4 sequence (Q9BYM8 whole entry): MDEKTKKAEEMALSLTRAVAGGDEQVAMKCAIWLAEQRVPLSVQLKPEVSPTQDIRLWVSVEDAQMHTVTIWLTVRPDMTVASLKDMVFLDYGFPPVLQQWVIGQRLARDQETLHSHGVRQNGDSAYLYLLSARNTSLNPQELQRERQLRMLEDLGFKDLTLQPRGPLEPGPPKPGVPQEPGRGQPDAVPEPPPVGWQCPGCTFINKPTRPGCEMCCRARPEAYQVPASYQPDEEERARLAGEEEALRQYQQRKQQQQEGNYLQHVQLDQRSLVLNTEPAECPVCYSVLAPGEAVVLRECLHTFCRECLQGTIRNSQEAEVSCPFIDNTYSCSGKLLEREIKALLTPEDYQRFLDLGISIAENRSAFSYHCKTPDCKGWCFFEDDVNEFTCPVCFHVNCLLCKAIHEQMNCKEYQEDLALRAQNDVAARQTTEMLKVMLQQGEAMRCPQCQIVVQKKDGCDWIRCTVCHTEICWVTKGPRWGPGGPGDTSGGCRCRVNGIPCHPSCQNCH
T4 sequence (Q96EP0 whole entry): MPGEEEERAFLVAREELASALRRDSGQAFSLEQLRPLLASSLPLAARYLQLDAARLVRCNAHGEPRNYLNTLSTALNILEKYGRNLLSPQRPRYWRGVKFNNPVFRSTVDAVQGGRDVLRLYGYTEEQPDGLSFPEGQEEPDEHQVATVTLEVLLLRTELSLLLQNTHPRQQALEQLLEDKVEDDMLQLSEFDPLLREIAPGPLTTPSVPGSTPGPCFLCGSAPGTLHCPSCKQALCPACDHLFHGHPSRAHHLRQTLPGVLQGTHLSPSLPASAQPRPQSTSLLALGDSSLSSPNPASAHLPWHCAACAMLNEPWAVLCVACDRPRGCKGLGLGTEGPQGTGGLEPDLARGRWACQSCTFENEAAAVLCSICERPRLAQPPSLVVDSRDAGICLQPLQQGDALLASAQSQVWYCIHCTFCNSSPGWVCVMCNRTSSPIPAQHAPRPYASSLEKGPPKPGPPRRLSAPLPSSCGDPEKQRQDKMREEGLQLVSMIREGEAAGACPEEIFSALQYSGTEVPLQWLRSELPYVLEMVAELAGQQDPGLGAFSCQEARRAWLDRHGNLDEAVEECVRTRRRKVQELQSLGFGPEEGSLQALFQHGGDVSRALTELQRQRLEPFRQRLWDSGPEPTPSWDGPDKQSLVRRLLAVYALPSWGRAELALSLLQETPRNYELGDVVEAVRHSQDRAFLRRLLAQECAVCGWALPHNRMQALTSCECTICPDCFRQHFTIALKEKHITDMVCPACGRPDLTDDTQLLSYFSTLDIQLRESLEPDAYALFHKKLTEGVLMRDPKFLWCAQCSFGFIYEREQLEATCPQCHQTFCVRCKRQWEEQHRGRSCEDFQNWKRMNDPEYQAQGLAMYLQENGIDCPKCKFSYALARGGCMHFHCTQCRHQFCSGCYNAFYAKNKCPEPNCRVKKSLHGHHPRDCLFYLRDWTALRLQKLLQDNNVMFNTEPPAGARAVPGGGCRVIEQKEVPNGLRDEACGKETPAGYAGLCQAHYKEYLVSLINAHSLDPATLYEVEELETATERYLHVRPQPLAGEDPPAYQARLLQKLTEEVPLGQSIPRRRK

[6] = target: Histone acetyltransferase p300 (Homo sapiens, UniProt Q09472); test: Inhibition of full length His6-tagged recombinant p300 (unknown origin) expressed in baculovirus infected Sf21 cells using human histone as substrate preincubated for 10 mins followed by [3H]acetyl-CoA addition measured after 10 mins by liquid scintillation counting method
Chain of Histone acetyltransferase p300 (Q09472 whole entry): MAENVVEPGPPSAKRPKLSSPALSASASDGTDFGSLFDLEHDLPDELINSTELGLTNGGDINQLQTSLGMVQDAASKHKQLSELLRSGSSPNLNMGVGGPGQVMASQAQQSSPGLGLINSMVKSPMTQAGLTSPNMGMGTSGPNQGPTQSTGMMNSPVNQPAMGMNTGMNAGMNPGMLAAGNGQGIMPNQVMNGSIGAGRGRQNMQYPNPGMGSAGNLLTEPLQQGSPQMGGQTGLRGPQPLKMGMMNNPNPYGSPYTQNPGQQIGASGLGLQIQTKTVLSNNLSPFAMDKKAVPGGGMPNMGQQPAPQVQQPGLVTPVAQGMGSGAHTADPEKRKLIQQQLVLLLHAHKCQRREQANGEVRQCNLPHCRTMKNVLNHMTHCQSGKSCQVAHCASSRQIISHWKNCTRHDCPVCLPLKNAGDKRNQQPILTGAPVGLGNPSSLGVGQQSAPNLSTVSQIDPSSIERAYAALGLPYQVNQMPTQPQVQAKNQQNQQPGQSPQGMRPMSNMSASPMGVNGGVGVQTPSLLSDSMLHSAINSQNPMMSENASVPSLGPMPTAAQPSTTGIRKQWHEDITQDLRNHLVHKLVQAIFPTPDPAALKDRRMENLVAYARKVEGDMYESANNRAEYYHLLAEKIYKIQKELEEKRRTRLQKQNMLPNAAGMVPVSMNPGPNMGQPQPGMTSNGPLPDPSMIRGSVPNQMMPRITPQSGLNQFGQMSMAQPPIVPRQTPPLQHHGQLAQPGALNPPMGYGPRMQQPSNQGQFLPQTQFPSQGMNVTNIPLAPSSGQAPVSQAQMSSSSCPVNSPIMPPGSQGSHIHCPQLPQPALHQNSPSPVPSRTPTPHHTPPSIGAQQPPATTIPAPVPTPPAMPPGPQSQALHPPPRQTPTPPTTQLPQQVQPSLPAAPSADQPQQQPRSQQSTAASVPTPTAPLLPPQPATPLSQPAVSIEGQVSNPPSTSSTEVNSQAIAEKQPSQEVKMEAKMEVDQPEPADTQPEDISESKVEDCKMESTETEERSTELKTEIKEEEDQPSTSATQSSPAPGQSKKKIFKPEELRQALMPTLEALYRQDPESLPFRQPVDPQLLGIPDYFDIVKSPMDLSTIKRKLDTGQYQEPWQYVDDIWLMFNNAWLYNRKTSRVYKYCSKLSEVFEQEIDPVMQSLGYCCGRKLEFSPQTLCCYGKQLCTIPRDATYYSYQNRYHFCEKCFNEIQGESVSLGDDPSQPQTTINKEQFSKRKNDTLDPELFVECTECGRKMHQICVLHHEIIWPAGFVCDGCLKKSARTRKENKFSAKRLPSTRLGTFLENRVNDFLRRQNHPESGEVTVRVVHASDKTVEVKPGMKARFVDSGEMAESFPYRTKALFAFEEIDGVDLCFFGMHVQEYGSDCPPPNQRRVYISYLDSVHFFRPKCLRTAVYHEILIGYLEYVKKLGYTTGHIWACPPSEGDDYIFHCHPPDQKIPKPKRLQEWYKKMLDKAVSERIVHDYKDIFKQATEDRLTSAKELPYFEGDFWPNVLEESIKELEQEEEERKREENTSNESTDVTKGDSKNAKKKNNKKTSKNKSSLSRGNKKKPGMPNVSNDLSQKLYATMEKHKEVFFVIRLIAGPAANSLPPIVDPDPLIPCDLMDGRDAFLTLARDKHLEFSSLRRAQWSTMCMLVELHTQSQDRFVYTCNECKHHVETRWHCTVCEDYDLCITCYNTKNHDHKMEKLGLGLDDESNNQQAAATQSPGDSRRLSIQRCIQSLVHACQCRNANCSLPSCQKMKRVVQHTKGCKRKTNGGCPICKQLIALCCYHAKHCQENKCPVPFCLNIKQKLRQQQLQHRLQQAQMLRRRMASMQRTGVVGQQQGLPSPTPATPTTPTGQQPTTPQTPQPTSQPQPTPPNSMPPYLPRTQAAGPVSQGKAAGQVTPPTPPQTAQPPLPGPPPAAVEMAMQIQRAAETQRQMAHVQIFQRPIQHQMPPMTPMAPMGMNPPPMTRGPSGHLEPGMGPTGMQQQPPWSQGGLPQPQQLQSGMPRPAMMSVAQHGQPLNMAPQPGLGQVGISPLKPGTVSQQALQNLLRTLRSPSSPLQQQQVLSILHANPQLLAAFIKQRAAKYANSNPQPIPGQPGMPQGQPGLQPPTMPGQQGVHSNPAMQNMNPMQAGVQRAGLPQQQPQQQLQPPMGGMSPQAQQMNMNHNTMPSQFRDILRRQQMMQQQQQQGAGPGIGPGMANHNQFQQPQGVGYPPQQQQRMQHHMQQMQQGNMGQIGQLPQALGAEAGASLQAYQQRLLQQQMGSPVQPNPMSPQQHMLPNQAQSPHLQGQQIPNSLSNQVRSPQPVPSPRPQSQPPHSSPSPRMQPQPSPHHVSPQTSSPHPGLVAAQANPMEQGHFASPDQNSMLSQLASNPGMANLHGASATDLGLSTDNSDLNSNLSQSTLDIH

[7] = target: c-Jun N-terminal kinase, JNK (Homo sapiens, UniProt P45983+P53779+P45984); test: Inhibition of JNK (unknown origin); assay type: protein assay
[8] = Inhibition of SCF (SKP2) complex (unknown origin) expressed in baculovirus infected Sf9 cells assessed as decrease in phospho-p27 Kip1 ubiquitination preincubated for 10 to 45 mins followed by phospho-p27 Kip1 addition measured after 1 to 3 hrs by immunoblot method; parameters: species or system Homo sapiens
[9] = target: Serine/threonine-protein kinase B-raf (Homo sapiens, UniProt P15056); test: Inhibition of BRAF (unknown origin) using MEK1 K97R mutant as substrate preincubated for 60 to 120 mins followed by substrate addition measured after 2 hrs by TR-FRET assay
Chain of Serine/threonine-protein kinase B-raf (P15056 whole entry): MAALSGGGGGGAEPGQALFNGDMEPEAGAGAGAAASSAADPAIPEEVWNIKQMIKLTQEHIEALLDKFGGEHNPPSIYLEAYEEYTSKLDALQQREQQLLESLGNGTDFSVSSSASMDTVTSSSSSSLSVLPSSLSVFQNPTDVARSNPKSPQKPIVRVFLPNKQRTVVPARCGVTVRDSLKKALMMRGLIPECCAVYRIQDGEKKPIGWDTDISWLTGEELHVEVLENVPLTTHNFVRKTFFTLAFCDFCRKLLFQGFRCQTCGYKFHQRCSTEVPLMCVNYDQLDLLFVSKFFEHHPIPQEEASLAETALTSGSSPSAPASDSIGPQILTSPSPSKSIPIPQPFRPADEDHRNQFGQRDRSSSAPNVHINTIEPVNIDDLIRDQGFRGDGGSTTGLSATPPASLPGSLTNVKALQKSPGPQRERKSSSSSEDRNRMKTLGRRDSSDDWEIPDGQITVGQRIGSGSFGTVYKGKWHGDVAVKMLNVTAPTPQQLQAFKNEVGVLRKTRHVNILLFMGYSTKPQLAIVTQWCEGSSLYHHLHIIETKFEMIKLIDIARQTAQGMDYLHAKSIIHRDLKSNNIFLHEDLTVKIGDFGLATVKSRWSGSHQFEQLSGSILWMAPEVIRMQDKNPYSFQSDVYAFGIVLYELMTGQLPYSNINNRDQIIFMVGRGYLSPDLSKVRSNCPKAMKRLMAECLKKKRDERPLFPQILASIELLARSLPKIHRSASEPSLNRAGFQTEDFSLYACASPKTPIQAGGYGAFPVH

Compound: CSCC[C@@H](NC(=O)c1ccc(CNCc2c[nH]cn2)cc1-c1ccccc1C)C(=O)O
IC50 [1]: 0.0014 µM

Compound: Cn1cncc1[C@@](N)(c1ccc(Cl)cc1)c1ccc2c(c1)c(-c1cccc(Cl)c1)cc(=O)n2C [TIPIFARNIB]
IC50 [5]: > 1 µM

Compound: CN1C(=O)[C@]23CC4=CC=C[C@H](O)[C@H]4N2C(=O)[C@@]1(CO)SS3 [GLIOTOXIN]
IC50 (Sharpin/RBCK1/RNF31): 0.51 µM

Compound: O=C1CCc2c(Oc3ccc4c(c3)[C@@H]3[C@H](O4)[C@H]3c3nc4ccc(C(F)(F)F)cc4[nH]3)ccnc2N1 [LIFIRAFENIB]
IC50 [9]: 0.023 µM

Now from value to compound, other results behind:

IC50 [2]: > 1 µM | IC50 [3]: > 1 µM | IC50 [4]: > 1 µM
Compound: NS(=O)(=O)OC[C@@H]1C[C@@H](n2ccc3c(N[C@H]4CCc5ccccc54)ncnc32)C[C@@H]1O [PEVONEDISTAT]
IC50 (SUMO-activating enzyme): > 1 µM

EC50 (Protein O-GlcNAcase): 0.03 µM
Compound: CCNC1=N[C@@H]2[C@@H](O)[C@H](O)[C@@H](CO)O[C@@H]2S1

IC50 [6]: 7 µM
Compound: C=C(C)[C@H](CC=C(C)C)C[C@]12C[C@H](CC=C(C)C)C(C)(C)[C@](CC=C(C)C)(C(=O)C(C(=O)c3ccc(O)c(O)c3)=C1O)C2=O

IC50 [1]: 0.0005 µM
Compound: COC(=O)[C@H](CCSC)NC(=O)c1ccc(NC[C@@H](N)CS)cc1-c1ccccc1

IC50 [7]: 0.7 µM
Compound: Nc1nnc(Sc2ncc([N+](=O)[O-])s2)s1

IC50 [8]: 1.7 µM
Compound: COCC(=O)N[C@@H](Cc1ccc(-c2cc(Cl)cc(Cl)c2)cc1)[C@H](O)[C@@H](O)C(=O)O
